The source of these data is patent US20240082200A1, “4-THIOCARBAMOYLPHENYL 2-(4-OXOPHENYL)-PHENYL PROPANOATE FOR THE TREATMENT OF PAIN ASSOCIATED WITH UROLOGIC CHRONIC PELVIC PAIN SYNDROME” (Antibe Therapeutics Inc., priority 2022, published 2024).

Entries after “also recorded” stand apart in the source; their conditions may differ.

Series [1] deals with cyclophosphamide (CYP)-induced interstitial cystitis. The series is described as follows: Mechanical allodynia (electronic von Frey) in CYP-induced cystitis mice. Format: in vivo, male C57BL/6 SPF mice. The note with it: for reversal of abdominal mechanical allodynia (withdrawal threshold, AUC 21 to 24 h after CYP): 21 h after CYP. On the procedure: Experiments were conducted with male C57BL/6 SPF mice (6-10 weeks of age) obtained from the animal care facilities at the Faculty of Medicine, University of Sao Paulo, Brazil. Mice were randomly separated into different treatment groups (n=5 to 7 per group). Groups of five or fewer mice were kept in Perspex cages under standard controlled conditions (22° C.; 12/12 h light/dark cycle) with free access to food (Nuvilab CR-1, Quimtia S/A, Brazil) and filtered tap water. The study was performed in agreement with the guidelines from the Brazilian Council for Control of Animal Experimentation (CONCEA) guidelines, consistent with the Animal Welfare Act. All the experimental protocols were approved by the local ethics committee (CEUA—ICB; protocol n ° 2055050819). According to the internal laboratory rules, euthanasia was performed if severe distress related to the test agents developed during the experiment.
Cystitis was induced by a single i.p. injection of cyclophosphamide CYP (300 mg kg^−1; Oliveira et al., 2018), while the control group received an i.p. injection of saline (10 ml kg^−1). […] The drugs were dissolved in 0.5% CMC at a concentration of 10 ml/kg^−1.
The mice were individually placed in a clear Perspex testing chamber (11 cm×9.5 cm×18 cm) on an elevated wire grid platform (0.5 cm2 grid) for an adequate acclimatization (˜1 h). Mechanical sensitivity assessment was performed with the aid of an electronic von Frey apparatus (Insight Inc., Ribeiräo Preto, SP, Brazil) with groups of 5-7 mice each, as described previously (Costa et al., 2020). Force-generating pressure was applied to the lower abdomen in the vicinity of the bladder (pelvic region between the urethra and the anus) with a pressure transducer connected to a digital force detector (Insight Ltd, Ribeiräo Preto/SP, Brazil). Retraction of the abdomen (mechanical allodynia) from the probe was considered as a positive response to the stimuli and were recorded in grams (g). […] All mechanical sensitivity testing was performed in a blinded manner. Response threshold data were analyzed via analysis of variance (ANOVA) followed by Tukey's post hoc test. All mice were euthanized with an overdose of isoflurane followed by cervical dislocation.

Another series relates to gastric mucosa. The experiment in a line: Assessment of gastric lesions in IC/BPS mice. Format: in vivo, male C57BL/6 SPF mice. The note with it: 3 h after oral dose, compound of Formula I 77 mg kg^-1 / ketoprofen 50 mg kg^-1 (equimolar). On the procedure: Briefly, mice from distinct experimental groups were euthanized by cervical dislocation under isoflurane anesthesia, and the stomach was excised, opened along the smaller curvature, rinsed gently with saline and then photographed with a digital camera (Samsung Galaxy S20, Campinas/SP, Brazil). The hemorrhagic gastric lesion area was measured blindly (mm^2) using computerized planimetry software (ImageJ, Maryland, USA).

Another series has as its system bladder strips. The experiment in a line: Bladder functional assay in vitro (bladder strips from treated CYP-cystitis mice). Format: in vivo, male C57BL/6 SPF mice. The note with it: for reduced contractile response of CYP bladder strips to KCl (80 mM): improvement: bladders taken 24 h after CYP. On the procedure:
The drugs were dissolved in 0.5% CMC at a concentration of 10 ml/kg^−1.
After 24 h, mice with CYP-induced cystitis were euthanized and the bladders were immediately transferred into a petri-dish. […] The bladders were divided into two longitudinal strips and mounted in an isolated organ bath system (Panlab Harvard, Massachussetts, USA) containing Krebs Henseleit solution at 37° C. (pH 7.4, O2/CO2 […] v/v) under a resting tension of 5 mN. Tissues were allowed to stabilize for 1 h, and during this period the bathing solution was replaced every 15 min. Isometric force was recorded using a PowerLab 8/30 Data Acquisition System (Software Chart, version 6.0, ADInstrument, Milford, MA, USA).

The subject of another series is periodontitis. The note with it: compared with ketoprofen (parent drug); cited from earlier work.
For series [2] the following is noted: in vivo; cited from earlier work.
The test system of series [3] is surgical incision pain model. As to conditions: mice; cited from earlier work.

For the compound `CC(C(=O)Oc1ccc(C(N)=S)cc1)c1ccc(C(=O)c2ccccc2)cc1` (centres unmarked) [compound of Formula I, 4-thiocarbamoylphenyl 2-(4-oxophenyl)-phenyl propanoate], the “reversal of abdominal mechanical allodynia (withdrawal threshold, AUC 21 to 24 h after CYP)” value is given as “significant dose-dependent differences” in series [1] (equimolar dose compound of Formula I 15 mg kg^-1 / ketoprofen 10 mg kg^-1, p.o., vs CYP + CMC 0.5%); “significant dose-dependent differences” in series [1] (equimolar dose compound of Formula I 46 mg kg^-1 / ketoprofen 30 mg kg^-1, p.o., vs CYP + CMC 0.5%); “significant dose-dependent differences” in series [1] (equimolar dose compound of Formula I 77 mg kg^-1 / ketoprofen 50 mg kg^-1, p.o., vs CYP + CMC 0.5%). The “analgesic effect as compared to equimolar ketoprofen (mechanical allodynia AUC)” value in series [1] (highest equimolar dose, 77 mg kg^-1 p.o. vs ketoprofen 50 mg kg^-1, P<0.001) was “enhanced analgesic effects”. In addition, the “anti-hyperalgesic effect on decreased abdominal withdrawal threshold (mechanical allodynia, AUC 21 to 24 h after CYP)” value in series [1] (lowest equimolar dose (compound of Formula I 4.6 mg kg^-1 / ketoprofen 3 mg kg^-1), p.o., 21 h after CYP 300 mg kg^-1 i.p., vs CYP + CMC 0.5%) was “no an anti-hyperalgesic effect”. The “potency compared with ketoprofen (abdominal hyperalgesic state and bladder contractile response, CYP-induced IC/BPS model)” value in series [1] (orally administered as a single dose) was “greater than that of ketoprofen”. In the series with gastric mucosa, the “hemorrhagic gastric lesions (gastric mucosal hemorrhagic injury)” value is given as “did not; also recorded: normal gastric mucosa”. The “reduced contractile response of CYP bladder strips to KCl (80 mM): improvement” value is “significantly and dose-dependently increased” in the series on bladder strips (equimolar dose compound of Formula I 15 mg kg^-1 / ketoprofen 10 mg kg^-1 p.o., vs CYP control); “significantly and dose-dependently increased” with bladder strips (equimolar dose compound of Formula I 46 mg kg^-1 / ketoprofen 30 mg kg^-1 p.o., vs CYP control); “neither compound of Formula I (77 mg kg^−1) nor ketoprofen (50 mg kg^−1) significantly improved” with bladder strips (high doses: compound of Formula I 77 mg kg^-1 / ketoprofen 50 mg kg^-1 p.o.). For the same compound, the “reduced maximal (Emax) contractile response elicited by carbachol (CCh) in bladder strips of IC/BPS mice: improvement” value with bladder strips (high doses (compound of Formula I 77 mg kg^-1 / ketoprofen 50 mg kg^-1 p.o.)) was “significantly increased”. Moreover, the “potency and effectiveness in periodontitis versus parent drug” value in the series on periodontitis is “more potent and effective”. Also, the “GI safety compared to ketoprofen” value in series [2] is reported as “increased GI safety”. Besides, in series [3], the “efficacy over ketoprofen in surgical incision pain model” value is on record as “increased efficacy”.
